Experiments:
Experiment in all cases: MIC, antibacterial activity (agar dilution)
Assay type in all cases: cell-based
Streptococcus uberis 8 = details: Mueller Hinton Agar, about 18 h at about 37° C
[1] = tested on: Staphylococcus aureus S tA 1; details: STA1, Mueller Hinton Agar, about 18 h at about 37° C
[2] = tested on: Proteus mirabilis Villette; details: Mueller Hinton Agar, about 18 h at about 37° C
[3] = tested on: Bacteroides fragilis 479R; details: anaerobic, Mueller Hinton Agar + 2% Fildes, about 48 h at about 37° C
Escherichia coli DC2 = details: Mueller Hinton Agar, about 18 h at about 37° C
Description: (§1) Description of the test method used
(§2) The strains used, identified in the following table, were thawed at the time of use and then diluted to obtain the following concentrations:
(§3) 10^7 bacteria/ml for the aerobic bacteria
(§4) 10^6 bacteria/ml for the anaerobic bacteria.
(§5) A stock suspension of the product of formula (II) was prepared at a concentration of 3000 mg/1 in water. It was then diluted with water to obtain concentrations of 300 mg/l, 100 mg/l, 50 mg/l and 25 mg/l.
(§6) The culture media were the following:
(§7) Mueller Hinton Agar (MHA) for the aerobic cultures
(§8) Mueller Hinton Agar (MHA)+2% Fildes (MHA) for the anaerobic cultures.
(§9) Each dilution of product was added to 20 mls of the culture medium maintained supercooled at 45° C., and the medium was then poured into Petri dishes. After gentle agitation, the dishes were dried open for about 1 hour at about 37° C.
(§10) Inoculation was carried out with a DENLEY multipoint inoculator, which deposited 10^-3 ml of each inoculum per spot.
(§11) Reading was performed after about 18 hours of incubation at about 37° C. for the aerobes and about 48 hours at about 37° C. for the anaerobes.
(§12) The minimal inhibitory concentration (MIC) was the lowest concentration for which no growth was observed.

Escherichia coli DCO = details: Mueller Hinton Agar, about 18 h at about 37° C
Description: as §1, §2, §3, §4, §5, §6, §7, §8, §9, §10, §11, §12

Clostridium septicum = details: anaerobic, Mueller Hinton Agar + 2% Fildes, about 48 h at about 37° C
Description: as §1, §2, §3, §4, §5, §6, §7, §8, §9, §10, §11, §12

Pasterella multocida IP = details: Mueller Hinton Agar, about 18 h at about 37° C

In the case of `C/C=C\C=C\C1OC(O)(C(CC)C(=O)NC/C=C/C=C(\C)C(OC)C(C)C2CC(O)C(/C=C/C=C/C=C/C(=O)O)O2)C(O)C(O)C1(C)C` (centres unmarked) [formula (II)], the MIC (Streptococcus uberis 8) is reported as 100 µg/mL, the MIC [1] is reported as greater than 300 µg/mL and the MIC [2] is reported as greater than 300 µg/mL. For the same compound, the MIC [3] was greater than 100 µg/mL, the MIC (Escherichia coli DC2) was 100 µg/mL and the MIC (Escherichia coli DCO) was greater than 300 µg/mL. For the same compound, the MIC (Clostridium septicum) was greater than 100 µg/mL and the MIC (Pasterella multocida IP) was greater than 300 µg/mL.
